Source: ChEMBL document CHEMBL1201862, “PubChem BioAssay data set” (2004)
Active and inactive are the calls of the source.

How the values were obtained:
[1] = molecular target: T1, Heat shock factor protein 1 (Mus musculus, UniProt P38532); test: inhibition of MG132-induced HSE-luciferase signal, confirmation, cell-based, NIH3T3, luminescence, dose retest (AID 2382); type: functional;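 also: NIH3T3 fibroblasts with HSF1-driven luciferase reporter stressed by proteasome inhibitor MG132; luminescence from HSF1-driven luciferase expression after 8 hours of MG132 stress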
T1 sequence (P38532 whole entry): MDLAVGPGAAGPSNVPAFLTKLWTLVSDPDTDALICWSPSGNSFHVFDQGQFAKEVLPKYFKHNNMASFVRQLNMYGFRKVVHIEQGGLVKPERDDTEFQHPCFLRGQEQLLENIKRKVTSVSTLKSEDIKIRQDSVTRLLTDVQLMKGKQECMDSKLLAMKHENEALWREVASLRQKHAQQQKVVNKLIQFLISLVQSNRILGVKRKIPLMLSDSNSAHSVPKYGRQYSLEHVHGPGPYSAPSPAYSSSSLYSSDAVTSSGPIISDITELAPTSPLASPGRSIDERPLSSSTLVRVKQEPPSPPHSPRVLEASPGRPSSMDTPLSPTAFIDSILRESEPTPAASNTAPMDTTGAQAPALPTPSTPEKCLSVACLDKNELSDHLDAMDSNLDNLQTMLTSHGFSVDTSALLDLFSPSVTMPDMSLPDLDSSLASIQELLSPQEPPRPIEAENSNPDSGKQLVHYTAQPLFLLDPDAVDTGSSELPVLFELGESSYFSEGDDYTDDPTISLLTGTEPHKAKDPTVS

[2] = molecular target: Cytochrome P450 2C19 (Homo sapiens, UniProt P33261); test: Cytochrome panel assay with activity outcomes. Panel member name: p450-cyp2c19 Compounds with AC50 equal or less than 10 uM are considered active; type: functional
Chain of Cytochrome P450 2C19 (P33261 whole entry): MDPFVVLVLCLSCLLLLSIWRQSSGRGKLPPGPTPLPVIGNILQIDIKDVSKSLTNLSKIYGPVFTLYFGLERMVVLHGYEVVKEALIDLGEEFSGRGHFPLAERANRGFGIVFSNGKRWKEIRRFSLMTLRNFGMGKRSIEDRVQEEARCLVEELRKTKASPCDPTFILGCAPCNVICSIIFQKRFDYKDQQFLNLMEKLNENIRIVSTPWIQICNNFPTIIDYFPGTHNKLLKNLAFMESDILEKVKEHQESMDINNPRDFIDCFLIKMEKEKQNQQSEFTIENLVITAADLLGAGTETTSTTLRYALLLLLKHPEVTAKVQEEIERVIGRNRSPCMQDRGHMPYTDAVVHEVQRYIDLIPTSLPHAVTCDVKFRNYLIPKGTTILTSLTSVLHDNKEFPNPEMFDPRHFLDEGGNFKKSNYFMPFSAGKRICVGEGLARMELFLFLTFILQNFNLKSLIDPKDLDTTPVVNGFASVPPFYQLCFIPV

[3] = molecular target: Cytochrome P450 3A4 (Homo sapiens, UniProt P08684);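 also: CYP3A4 tested as one member of a cytochrome P450 panel screen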
Chain of Cytochrome P450 3A4 (P08684 whole entry): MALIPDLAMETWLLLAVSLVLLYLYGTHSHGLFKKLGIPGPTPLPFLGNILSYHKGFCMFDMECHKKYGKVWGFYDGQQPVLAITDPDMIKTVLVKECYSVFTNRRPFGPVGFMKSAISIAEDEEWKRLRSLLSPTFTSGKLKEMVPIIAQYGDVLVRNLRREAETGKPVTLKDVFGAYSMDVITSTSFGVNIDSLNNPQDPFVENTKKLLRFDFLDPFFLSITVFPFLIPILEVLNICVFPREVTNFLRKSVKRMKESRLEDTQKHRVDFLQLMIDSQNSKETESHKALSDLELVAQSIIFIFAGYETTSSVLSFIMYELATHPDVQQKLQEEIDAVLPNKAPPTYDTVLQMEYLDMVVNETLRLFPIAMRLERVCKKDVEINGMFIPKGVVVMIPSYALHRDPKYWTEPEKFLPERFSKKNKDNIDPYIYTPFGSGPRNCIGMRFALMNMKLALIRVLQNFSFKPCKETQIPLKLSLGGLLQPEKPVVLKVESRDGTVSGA

[4] = molecular target: T1, Heat shock factor protein 1; test: HSF1 potentiators in luciferase reporter cells, confirmation, cell-based, NIH3T3, luminescence, dose retest (AID 435004); type: functional;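 also: stress induced by proteasome inhibitor MG132 added 30 min after compound; luciferase reporter driven by HSF1 response element in NIH3T3 cells; actives raise luminescence as potentiators of the MG132 stress response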
[5] = inhibitors of firefly luciferase expression or activity, dose response, H4 neuroglioma cells, luminescence (AID 1990); type: functional, cell-based
[6] = Luminescence Cell-Based Dose Response HTS to Identify Inhibitors of 5'UTR Stem-Loop Driven Prion Protein mRNA Translation in H4 Neuroglioblastoma Cells. [Related pubchem assays: 1827 (Project Summary), 1813 (Primary HTS)]; type: functional
[7] = inhibitors of SNCA 5'UTR-driven reporter translation, confirmation, H4 neuroglioma cells, luminescence (AID 1988); type: functional, cell-based
[8] = inhibitors of intracellular T. cruzi replication, confirmation, NIH3T3 host cells, beta-gal luminescence (AID 2044); type: functional, cell-based;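 also: intracellular parasites grown in NIH/3T3 mouse fibroblasts as host cells; luminescent beta-galactosidase reporter signal from transgenic T. cruzi replicating inside host cells; inhibitors lower the luminescence signal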
[9] = cytotoxicity toward NIH3T3 fibroblasts, dose response, counter-screen, cell-based, ATP luminescence, mouse fibroblasts (AID 2010); type: functional;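 also: cells exposed to compound for about 90 hours before reading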
[10] = test system: Streptococcus sp. 'group A'; test: growth inhibition of control SK(-) GAS strain, dose response, counter-screen for streptokinase expression inhibitor project, luminescence, kanamycin, BacTiterGlo, confirmation (AID 1900); type: functional, organism-based
[11] = test system: Streptococcus; test: Group A Streptococcus viability loss, dose response, counter-screen for streptokinase expression inhibitor project, luminescence, BacTiterGlo (AID 1915); type: functional, organism-based;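 also: potency for reduction of bacterial viability or growth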

Cc1ccc(N(C)C(=O)CN(C)S(=O)(=O)c2ccc3c(c2)n(C)c(=O)c(=O)n3C)cc1
EC50 [1]: > 195 µM (not active)

C/C(=N\Nc1nnc(-c2ccccc2)c(-c2ccccc2)n1)c1cccc([N+](=O)[O-])c1
AC50 ([2]; read-out: AC50): 17.8 µM (inconclusive) | AC50 [3]: 35.5 µM (inconclusive)

CCc1cc2c(nc1CC)CCN(CC/C(C)=N/OC[C@@H](C)[C@H](OCc1ccccc1)C(C)C)C2
AC50 [3]: 3.98 µM (inconclusive)

N=c1sccn1CC(=O)Nc1cc(Cl)ccc1Oc1ccccc1
EC50 [4]: > 260 µM (inactive)

COC(=O)C1=C(C)N(CCc2c[nH]c3ccc(OC)cc23)C(=O)C1
EC50 [5]: > 120 µM (not active) | EC50 [6]: > 120 µM (not active) | EC50 [7]: > 120 µM (not active)

COC(=O)C1=CN(Cc2ccc(OC)c(OC)c2)C=C(C(=O)OC)C1c1cccc(F)c1
EC50 [5]: 15.1 µM (active) | EC50 [6]: > 120 µM (not active) | EC50 [7]: 65.7 µM (active) | EC50 [8]: 0.156 µM (active) | EC50 [9]: > 60 µM (not active)

Cc1cc(CN2CCN(CCC#N)CC2)c(O)c(C2(C)CCCCC2)c1
EC50 [8]: 1.1 µM (active) | EC50 [9]: > 60 µM (not active)

N#CCn1c2ccccc2c2nc3ccccc3nc21
EC50 [5]: 23.3 µM (active) | EC50 [6]: > 120 µM (not active) | EC50 [7]: > 120 µM (not active)

Cc1cc(-c2c(C)[nH]n(-c3ccc(Cl)cc3)c2=O)[nH]n1
EC50 [10]: 2.51 µM (active) | EC50 [11]: > 150 µM (not active)

CCOC(=O)c1ccc(-c2c(-c3cc(OC)c(OC)c(OC)c3)noc2C)cc1F
EC50 [5]: 9.94 µM (inconclusive) | EC50 [6]: 11.4 µM (active) | EC50 [7]: 1.43 µM (active)

O=C1[C@H]2[C@H]3[C@H](O)[C@H](O)C/C(=N/OC[C@@H](O)COCc4ccco4)[C@@H]3CC[C@@H]2C(=O)N1c1cccc(Oc2ccccc2)c1
AC50 [3]: 7.94 µM (inconclusive)

CCN(C(=O)c1cccc(S(=O)(=O)N2CCCCC2)c1)C1CCS(=O)(=O)C1 (configuration not stated)
EC50 [4]: > 260 µM (inactive)

COc1cccc2cc(C(=O)NCc3ccco3)/c(=N/c3ccc(C(=O)O)cc3)oc12
EC50 [1]: > 195 µM (not active)

COc1cc(OC)c(OC)cc1/C=N/NC(=S)NCC1CCCO1 (configuration not stated)
EC50 [1]: > 195 µM (not active)

COc1ccc(C(=O)NCc2nnc(SCC(=O)N3CCC(C)CC3)o2)cc1OC
EC50 [1]: > 195 µM (not active)

CCOc1ccccc1CN1CCN(Cc2cn(C)nc2-c2ccccc2)CC1CCO (configuration not stated)
EC50 [4]: > 260 µM (inactive)

COc1ccc(/C=C2\CCCC3C2=NN(C(=O)COC(=O)CNC(=O)c2ccccc2)C3c2ccc(OC)cc2)cc1 (configuration not stated)
EC50 [1]: > 195 µM (not active)

COc1ccc(CN(CC2CCC(C(=O)O)CC2)C(=S)Nc2ccc(C)c(Cl)c2)cc1 (configuration not stated)
EC50 [8]: > 60 µM (not active) | EC50 [9]: > 60 µM (not active)

O=C(/C=C/c1ccccc1)NC(=S)N1CCSCC1
EC50 [1]: > 195 µM (not active)

CC(C)(C)OC(=O)N1CCN(C(=O)c2[nH]cnc2C(=O)NCC(=O)OCc2ccccc2)CC1
EC50 [1]: > 195 µM (not active)

Oc1nc(CN2CCN(C/C=C/c3ccccc3)CC2)nc2cc(Cl)ccc12
EC50 [8]: 0.405 µM (active) | EC50 [9]: > 60 µM (not active)

O=[N+]([O-])c1ccccc1/C=N/n1c(S)nnc1COc1ccccc1
AC50 ([2]; read-out: AC50): 11.2 µM (inconclusive)

CCOC(=O)c1c(-c2ccc(C)cc2)cn2ccccc12
EC50 [4]: > 260 µM (inactive)

Oc1ccc(OCc2ccccc2)cc1 [MONOBENZONE]
AC50 ([2]; read-out: AC50): 6.31 µM (inconclusive)

Cc1cccc(C)c1NC(=O)c1cc2c(=O)c3ccccc3oc2nc1C(F)(F)F
AC50 [2]: inconclusive | AC50 [3]: 0.0501 µM (inconclusive)

CCOc1cc(OCC)cc(C(=O)O)c1
EC50 [1]: > 195 µM (not active)

Cc1ccc(N2C(=O)c3ccccc3NC2C(C)Cc2ccc3c(c2)OCO3)cc1 (configuration not stated)
EC50 [8]: 2.61 µM (active) | EC50 [9]: > 30 µM (not active)

CC(=O)c1[nH]c(C)c(C(C)=O)c1C
AC50 [3]: 20 µM (inconclusive)

N=C(N)NS(=O)(=O)c1ccc(NC(=S)NC(=O)c2ccc(Br)cc2)cc1
EC50 [4]: > 260 µM (inactive)

CC1CCCC(C)N1CC(O)COCC1COc2ccccc2O1.Cl (configuration not stated)
AC50 [2]: inconclusive

CCC(=O)N1CCN(c2ccc(NC(=O)COc3ccc(C)cc3C)cc2)CC1
EC50 [4]: > 260 µM (inactive)

CCOC(=O)CCCNC(=O)CCCNC(=O)C(c1ccccc1)c1ccccc1
AC50 ([2]; read-out: AC50): 14.1 µM (inconclusive) | AC50 [3]: 8.91 µM (inconclusive)

Nc1nc(NC(=O)C(Cl)(Cl)Cl)nn1-c1ccccc1
EC50 [1]: > 195 µM (not active)

O=C(c1ccc(SCc2cccc(Br)c2)c([N+](=O)[O-])c1)N1CCN(c2ccccn2)CC1
EC50 [8]: 2.08 µM (active) | EC50 [9]: > 60 µM (not active)

Nc1cc(Cl)ccc1Oc1ccccc1
AC50 [3]: 22.4 µM (inconclusive)

CCn1c(SCC(=O)Nc2nc(C)c(C)s2)nnc1-c1cccnc1
EC50 [5]: > 120 µM (not active) | EC50 [6]: > 120 µM (not active) | EC50 [7]: > 120 µM (not active)

COCCNC(=O)c1cccc(OC2CCN(Cc3ccc(Cl)c(F)c3)CC2)c1
EC50 [4]: > 260 µM (inactive)

CC(CCCC(C)(C)O)NC(=O)c1ccc2oc(CCc3ccccc3)nc2c1 (configuration not stated)
EC50 [1]: > 195 µM (not active)

COc1ccc(CN2CC(=O)N(c3ccc(C)c(C)c3)C2=S)cc1OC
EC50 [5]: 21.3 µM (active) | EC50 [6]: > 120 µM (not active) | EC50 [7]: 20.4 µM (active)

CCOC(=O)Cc1cnc(NC(=O)c2ccccc2)s1
EC50 [1]: > 195 µM (not active)

Cn1cccc1C(=O)N1CCC2(CCCN(C(=O)Nc3ccccc3)C2)CC1
AC50 [3]: 31.6 µM (inconclusive)

Cc1ccc([N+](=O)[O-])c(OCCCN2CCC(Cc3ccccc3)CC2)c1
EC50 [1]: > 195 µM (not active)

Cc1ccc(-c2nnn(CC(=O)N(Cc3cccs3)C(C(=O)NC3CCCC3)c3ccncc3)n2)cc1 (configuration not stated)
EC50 [1]: > 195 µM (not active)

Cc1ccc(S(=O)(=O)c2c(C)cc(C)nc2Cl)c(C)c1
EC50 [8]: 2 µM (active) | EC50 [9]: > 60 µM (not active)

C=CCOc1ccc(/C=C/C(=O)OCC(=O)NCC2CCCCC2)cc1
EC50 [1]: > 195 µM (not active)

COc1ccc(C)cc1S(=O)(=O)Nc1cc2c3c(c1)CCC(=O)N3CCC2
EC50 [1]: > 195 µM (not active)

CSCC[C@H](NC(=O)CC(C)(C)C)c1nc2ccccc2[nH]1
AC50 [3]: 15.8 µM (inconclusive)

C/C(=N\CCc1c(C)[nH]c2ccc(OCc3ccccc3)cc12)C1=C(O)CC(c2ccccc2)CC1=O (configuration not stated)
EC50 [8]: 2.1 µM (active) | EC50 [9]: > 60 µM (not active)

CC(C)c1cccc2cc3c(nc12)-c1cccc(=O)n1C3
AC50 ([2]; read-out: AC50): 39.8 µM (inconclusive)

Cc1ccc(-c2nnc(N3CCN(C(=O)c4cccs4)CC3)c3ccccc23)cc1
EC50 [5]: > 120 µM (not active) | EC50 [6]: > 120 µM (not active) | EC50 [7]: 22 µM (active)

COC(=O)c1ccc(COc2cccc3c2CCN(Cc2cccc(C)c2)C3=O)o1
EC50 [5]: > 120 µM (not active) | EC50 [6]: > 120 µM (not active) | EC50 [7]: 107 µM (active)

CO[C@@H]1COC(=O)CCC[C@@H](C)[C@H](OC)COC(=O)[C@H](Cc2ccccc2)NC(=O)C/C=C\[C@H]1C
AC50 ([2]; read-out: AC50): 0.00251 µM (inconclusive)

O=C(Nc1c2c(nn1-c1ccc(F)cc1)CS(=O)(=O)C2)C12CC3CC(CC(C3)C1)C2
AC50 [2]: inconclusive

COc1ccc(C(=O)N2CCC3(CCCN(CC(C)C)C3)CC2)cc1
AC50 [3]: 25.1 µM (inconclusive)

COc1ccc(OC)c(C2CC(=O)Nc3[nH]nc(-c4ccccc4)c32)c1 (configuration not stated)
EC50 [5]: > 120 µM (not active) | EC50 [6]: > 120 µM (not active) | EC50 [7]: > 120 µM (not active)

O=C(Cc1ccccc1)NCCSCc1ccc(Cl)cc1
AC50 [3]: 14.1 µM (inconclusive)

CCOc1c(C)cc(S(=O)(=O)NCc2cccnc2)c(C)c1C
EC50 [1]: > 195 µM (not active)

CC(=O)C1=C(O)C=C(c2ccco2)CC1c1ccco1 (configuration not stated)
AC50 ([2]; read-out: AC50): 2.24 µM (inconclusive) | AC50 [3]: 20 µM (inconclusive)

CN1CC[C@@]2(CCCN(C(=O)c3cccn3C)C2)C1
AC50 [3]: 7.94 µM (inconclusive)

COc1cccc(-n2c(SCC(=O)Nc3sc4c(c3C(N)=O)CCC4)nc3ccccc3c2=O)c1
EC50 [8]: 2.9 µM (active) | EC50 [9]: > 60 µM (not active)

O=C(Nc1nc(-c2ccccc2)cs1)C1CCCCN1S(=O)(=O)c1ccc(Cl)cc1 (configuration not stated)
EC50 [8]: 2.22 µM (active) | EC50 [9]: > 60 µM (not active)

S=C(Nc1ccc(Br)cc1Cl)NC1CCN(Cc2ccccc2)CC1
EC50 [8]: 0.228 µM (active) | EC50 [9]: > 30 µM (not active)
